Columns and labels:
Palmer amaranth (AMAPA) = experiment: pre-emergence test, weed control; format: in vivo, Amaranthus palmeri; conditions: pre-emergent, 28 DAT, (−)-BFL >95% e.e., rate g ai/ha by row: r6 62, r7 125, r8 125, r9 250, r10 445, r11 890, r12 45, r13 90, r14 62+125, r15 125+125, r16 62+250, r17 125+250, r18 62+445, r19 125+445, r20 62+890, r21 125+890, r22 62+45, r23 125+45, r24 62+90, r25 125+90
Protocol: (§1) Test compositions containing the test compounds were diluted with water to provide the appropriate test rate concentrations.
(§2) For pre-emergence testing, four disposable fiber flats (6 inch by 10 inch) for each rate of application of each herbicide solution were filled with top soil, to which seeds of each species were planted in furrows made by a template pressed on the top of the soil. The furrows were covered with soil after planting the seed and were watered well before application of the test compounds.
(§3) Fiber flats designated for treatment were placed in a spray chamber having a static platform and a movable sprayer and the height of the spray nozzle was 10.5 inches above the soil level. Once the sprayer was calibrated using water for spray volume of 30 gallons per acre, flats were sprayed with sprayer at a speed to receive a coverage equivalent of 30 gallons per acre. The application rates are those shown in the Tables below for the individual herbicidal solutions and the herbicide compositions of this invention. The pre-emergence flats were immediately placed in the greenhouse and watered lightly after treatment. Thereafter they were regularly watered and fertilized for the duration of the test.
(§4) The control of weeds was evaluated in each experimental test at 21 for wheat and 28 days after treatment (DAT) for all species. Data were analyzed using Minitab software at 95% confidence interval. The results, shown as an average of the replications, were compared with results observed in untreated control flats in the same tests. Percent control was determined by a method similar to the 0 to 100 rating system disclosed in “Research Methods in Weed Science,” 2nd ed., B. Truelove, Ed.; Southern Weed Science Society; Auburn University, Auburn, Ala., 1977. The rating system is as follows in Table 1.

Wild oat (AVEFA) = experiment: pre-emergence test, weed control; format: in vivo, Avena fatua; conditions: pre-emergent; for percentage of weed control, AVEFA: 28 DAT; for percentage of weed control, Wild Oat AVEFA: 21 DAT, rate g ai/ha by row: r4 94, r5 125, r6 250, r7 125, r8 250, r9 500, r10 94+125, r11 125+125, r12 94+250, r13 125+250, r14 94+500, r15 125+500
Protocol: as §1, §2, §3, §4

Green foxtail (SETVI) [1] = experiment: pre-emergence test, weed control; format: in vivo, Setaria viridis; conditions: pre-emergent, 28 DAT
Protocol: as §1, §2, §3, §4

Yellow foxtail (SETLU) = experiment: pre-emergence test, weed control; format: in vivo; conditions: pre-emergent, 28 DAT
Protocol: as §1, §2, §3, §4

Blackgrass (ALOMY) = experiment: pre-emergence test, weed control; format: in vivo; conditions: pre-emergent, 28 DAT
Protocol: as §1, §2, §3, §4

crop and weed species = experiment: pre-emergence test, several crop and weed species together; format: in vivo; conditions: pre-emergent, 28 DAT (Tables 16 and 17), >95% e.e.
Protocol: as §1, §2
Fiber flats designated for treatment were placed in a spray chamber having a static platform and a movable sprayer and the height of the spray nozzle was 10.5 inches above the soil level. Once the sprayer was calibrated using water for spray volume of 30 gallons per acre, flats were sprayed with sprayer at a speed to receive a coverage equivalent of 30 gallons per acre. […]
The control of weeds was evaluated in each experimental test at 21 for wheat and 28 days after treatment (DAT) for all species. Data were analyzed using Minitab software at 95% confidence interval. […] Percent control was determined by a method similar to the 0 to 100 rating system disclosed in “Research Methods in Weed Science,” 2nd ed., B. Truelove, Ed.; Southern Weed Science Society; Auburn University, Auburn, Ala., 1977. […]

velvetleaf (IPOHE) = experiment: pre-emergence test, weed control; format: in vivo; conditions: pre-emergent, 21 DAT, rate g ai/ha by row: r4 94, r5 125, r6 250, r7 125, r8 250, r9 500, r10 94+125, r11 125+125, r12 94+250, r13 125+250, r14 94+500, r15 125+500
Protocol: as §1, §2, §3, §4

Velvetleaf (ABUTH) = experiment: pre-emergence test, weed control; format: in vivo, Abutilon theophrasti; conditions: pre-emergent, 21 DAT, rate g ai/ha by row: r4 94, r5 125, r6 250, r7 125, r8 250, r9 500, r10 94+125, r11 125+125, r12 94+250, r13 125+250, r14 94+500, r15 125+500
Protocol: as §1, §2, §3, §4

Large crabgrass (DIGSA) = experiment: pre-emergence test, weed control; format: in vivo; conditions: pre-emergent, 28 DAT, rate g ai/ha by row: r4 94, r5 50, r6 100, r7 52.5, r8 70, r9 94+52.5, r10 94+70, r11 50+52.5, r12 50+70, r13 100+52.5, r14 100+70
Protocol: as §1, §2, §3, §4

Jimsonweed (DATST) = experiment: pre-emergence test, weed control; format: in vivo, Datura stramonium; conditions: pre-emergent, 28 DAT; BFL at 62.5 g, PTX at 90 g, combination of both
Protocol: as §1, §2, §3, §4

Green foxtail (SETVI) [2] = experiment: post-emergence test, weed control; format: in vivo, Setaria viridis; conditions: post-emergent, 28 DAT; BFL at 187.5 g, PTX at 890 g, combination of both
Protocol: as §1
For post-emergence testing, seeds of each species for each rate of application of each herbicide solution were planted in 7.5 cm×7.5 cm plastic pots filled with potting soil. The seeds were germinated and the resulting plants were allowed to grow in a greenhouse until they reached a growth stage, such as height, suitable for testing. Treatments were applied using compressed air in a track spray chamber at 30 gallons/acre (280 L/ha) using a TeeJet 8001E nozzle at 40 psi (2.76 bars). Pots of post-emergent treated plants were returned to the greenhouse and not watered for 24 hours after treatment. Thereafter they were regularly watered and fertilized for the duration of the test.
as §4

[3] = system: Common lambsquarters (CHEAL); experiment: pre-emergence test, weed control; format: in vivo, Chenopodium album; conditions: pre-emergent, 28 DAT, (+)-BFL >95% e.e.; rate g ai/ha by row: r6 62.5, r7 125, r8 62.5, r9 125, r10 222, r11 445, r12 22.5, r13 45, r14 62.5+62.5, r15 125+62.5, r16 62.5+125, r17 125+125, r18 62.5+222, r19 125+222, r20 62.5+445, r21 125+445, r22 62.5+22.5, r23 125+22.5, r24 62.5+45, r25 125+45
Protocol: as §1, §2, §3, §4

[4] = (−)-BFL >95% e.e., rate g ai/ha by row: r6 62, r7 125, r8 125, r9 250, r10 445, r11 890, r12 45, r13 90, r14 62+125, r15 125+125, r16 62+250, r17 125+250, r18 62+445, r19 125+445, r20 62+890, r21 125+890, r22 62+45, r23 125+45, r24 62+90, r25 125+90, 62 g ai/ha
[5] = (−)-BFL >95% e.e., rate g ai/ha by row: r6 62, r7 125, r8 125, r9 250, r10 445, r11 890, r12 45, r13 90, r14 62+125, r15 125+125, r16 62+250, r17 125+250, r18 62+445, r19 125+445, r20 62+890, r21 125+890, r22 62+45, r23 125+45, r24 62+90, r25 125+90, 125 g ai/ha
[6] = (+)-BFL >95% e.e., rate g ai/ha by row: r6 62.5, r7 125, r8 62.5, r9 125, r10 222, r11 445, r12 22.5, r13 45, r14 62.5+62.5, r15 125+62.5, r16 62.5+125, r17 125+125, r18 62.5+222, r19 125+222, r20 62.5+445, r21 125+445, r22 62.5+22.5, r23 125+22.5, r24 62.5+45, r25 125+45, 222 g ai/ha
[7] = (+)-BFL >95% e.e., rate g ai/ha by row: r6 62.5, r7 125, r8 62.5, r9 125, r10 222, r11 445, r12 22.5, r13 45, r14 62.5+62.5, r15 125+62.5, r16 62.5+125, r17 125+125, r18 62.5+222, r19 125+222, r20 62.5+445, r21 125+445, r22 62.5+22.5, r23 125+22.5, r24 62.5+45, r25 125+45, 445 g ai/ha
[8] = (−)-BFL >95% e.e., rate g ai/ha by row: r6 62, r7 125, r8 125, r9 250, r10 445, r11 890, r12 45, r13 90, r14 62+125, r15 125+125, r16 62+250, r17 125+250, r18 62+445, r19 125+445, r20 62+890, r21 125+890, r22 62+45, r23 125+45, r24 62+90, r25 125+90, 445 g ai/ha
[9] = (−)-BFL >95% e.e., rate g ai/ha by row: r6 62, r7 125, r8 125, r9 250, r10 445, r11 890, r12 45, r13 90, r14 62+125, r15 125+125, r16 62+250, r17 125+250, r18 62+445, r19 125+445, r20 62+890, r21 125+890, r22 62+45, r23 125+45, r24 62+90, r25 125+90, 890 g ai/ha
[10] = (+)-BFL >95% e.e., rate g ai/ha by row: r6 62.5, r7 125, r8 62.5, r9 125, r10 222, r11 445, r12 22.5, r13 45, r14 62.5+62.5, r15 125+62.5, r16 62.5+125, r17 125+125, r18 62.5+222, r19 125+222, r20 62.5+445, r21 125+445, r22 62.5+22.5, r23 125+22.5, r24 62.5+45, r25 125+45

## CC[C@H](Oc1ccc(F)c(C(F)(F)F)c1)C(=O)NCc1ccccc1 [(−)-BFL, (2S)-2-[4-fluoro-3-(trifluoromethyl)phenoxy]-N-(phenylmethyl)butanamide]
Palmer amaranth (AMAPA); 62 g ai/ha
  percentage of weed control, AMAPA: 70%
Palmer amaranth (AMAPA); 125 g ai/ha
  percentage of weed control, AMAPA: 97%
Wild oat (AVEFA); [4]
  percentage of weed control, AVEFA: 7%
Wild oat (AVEFA); [5]
  percentage of weed control, AVEFA: 11%
Green foxtail (SETVI) [1]; [4]
  percentage of weed control, SETVI: 80%
Green foxtail (SETVI) [1]; [5]
  percentage of weed control, SETVI: 97%
Yellow foxtail (SETLU); [4]
  percentage of weed control, SETLU: 86%
Yellow foxtail (SETLU); [5]
  percentage of weed control, SETLU: 100%
Blackgrass (ALOMY); [4]
  percentage of weed control, ALOMY: 19%
Blackgrass (ALOMY); [5]
  percentage of weed control, ALOMY: 32%
Crop and weed species
  herbicidal activity of the enantiomers compared: the more active enantiomer

## CCOCN(C(=O)CCl)c1c(C)cccc1CC [Acetochlor]
Wild oat (AVEFA); 125 g ai/ha
  percentage of weed control, Wild Oat AVEFA: 13%
Wild oat (AVEFA); 250 g ai/ha
  percentage of weed control, Wild Oat AVEFA: 11%
Velvetleaf (IPOHE); 125 g ai/ha
  percentage of weed control, Morningglory IPOHE: 5%
Velvetleaf (IPOHE); 250 g ai/ha
  percentage of weed control, Morningglory IPOHE: 6%
Velvetleaf (IPOHE); 500 g ai/ha
  percentage of weed control, Morningglory IPOHE: 8%
Velvetleaf (ABUTH); 125 g ai/ha
  percentage of weed control, Velvetleaf ABUTH: 10%
Velvetleaf (ABUTH); 250 g ai/ha
  percentage of weed control, Velvetleaf ABUTH: 11%

## O=C(Nc1ccc(F)cc1F)c1cccnc1Oc1cccc(C(F)(F)F)c1 [Diflufenican]
Large crabgrass (DIGSA); 50 g ai/ha
  percentage of weed control, DIGSA: 18%
Large crabgrass (DIGSA); 100 g ai/ha
  percentage of weed control, DIGSA: 30%

## CCOCCN(C(=O)CCl)C(=C(C)C)c1ccccc1 [PTX, Pethoxamid]
Jimsonweed (DATST)
  control of jimsonweed: 4%
Green foxtail (SETVI) [2]
  control of green foxtail: 4%
Palmer amaranth (AMAPA); 445 g ai/ha
  percentage of weed control, AMAPA: 98%
Palmer amaranth (AMAPA); 890 g ai/ha
  percentage of weed control, AMAPA: 100%
Wild oat (AVEFA); [6]
  percentage of weed control, AVEFA: 84%
Wild oat (AVEFA); [7]
  percentage of weed control, AVEFA: 92%
Wild oat (AVEFA); [8]
  percentage of weed control, AVEFA: 89%
Wild oat (AVEFA); [9]
  percentage of weed control, AVEFA: 92%
Green foxtail (SETVI) [1]; [10]
  percentage of weed control, SETVI: 99%
Green foxtail (SETVI) [1]; [8]
  percentage of weed control, SETVI: 98%
Green foxtail (SETVI) [1]; [9]
  percentage of weed control, SETVI: 100%
[3]
  percentage of weed control, CHEAL: 100%
Yellow foxtail (SETLU); [10]
  percentage of weed control, SETLU: 99%
Yellow foxtail (SETLU); [8]
  percentage of weed control, SETLU: 99%
Yellow foxtail (SETLU); [9]
  percentage of weed control, SETLU: 100%
Blackgrass (ALOMY); [6]
  percentage of weed control, ALOMY: 70%
Blackgrass (ALOMY); [7]
  percentage of weed control, ALOMY: 96%
Blackgrass (ALOMY); [8]
  percentage of weed control, ALOMY: 59%
Blackgrass (ALOMY); [9]
  percentage of weed control, ALOMY: 83%
